One assay deals with T1, 5-HT4 receptor (Cavia porcellus, UniProt O70528).
T1 construct: crude synapse membrane sample was prepared from guinea pig striatum; from tissue; host or cells: guinea pig striatum, crude synaptic membranes
Put plainly: biochemical. Format: binding, guinea pig.

In another assay the target is T2, 5-HT3 receptor (Rattus norvegicus, UniProt P35563).
T2 construct: crude synapse membrane sample was prepared from rat cerebral cortex; from tissue; host or cells: rat cerebral cortex, crude synaptic membranes
T2 sequence (P35563 24-483): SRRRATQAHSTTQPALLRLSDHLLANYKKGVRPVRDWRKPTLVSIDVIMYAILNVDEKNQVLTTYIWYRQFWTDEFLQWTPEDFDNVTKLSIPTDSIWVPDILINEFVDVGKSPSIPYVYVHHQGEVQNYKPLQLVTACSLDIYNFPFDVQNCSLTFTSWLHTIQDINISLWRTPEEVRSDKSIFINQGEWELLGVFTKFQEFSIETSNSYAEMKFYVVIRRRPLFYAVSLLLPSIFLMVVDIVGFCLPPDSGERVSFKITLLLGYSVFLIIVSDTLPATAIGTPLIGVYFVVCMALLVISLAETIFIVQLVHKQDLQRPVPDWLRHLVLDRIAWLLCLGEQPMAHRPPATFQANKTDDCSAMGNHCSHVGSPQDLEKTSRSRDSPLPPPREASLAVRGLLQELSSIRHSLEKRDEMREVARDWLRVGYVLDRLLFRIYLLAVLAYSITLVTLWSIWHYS
The assay is described as follows: 5-HT3 receptor binding test ([3H]Granisetron, crude synapse membrane from cerebral cortex). The conditions noted are these: for Ki: IC50 converted to Ki, read-out: Affinity for receptor (Ki value, nM) 5-HT3.

Setting [1] is: [3H]GR113808 0.1 nM, guinea pig striatum membranes, 37°C, 30 min, IC50 converted to Ki, read-out: Affinity for receptor (Ki value, nM) 5-HT4.
Setting [2] is: values marked * are IC50, [3H]Granisetron 1.0 nM, rat cerebral cortex membranes, 25°C, 30 min, read-out: Affinity for receptor 5-HT3 (∗ shows IC50).
Setting [3] is: [3H]Granisetron 1.0 nM, rat cerebral cortex membranes, 25°C, 30 min.

Here are results for 17 compounds from patent EP0873990A1, “BENZOIC ACID COMPOUNDS AND MEDICINAL USE THEREOF” (YOSHITOMI PHARMACEUTICAL INDUSTRIES, LTD., priority 1995, dated 1997).

Structures can show the parent of a compound that is named as a salt. Where two headings read alike, the source gives them in different places.

One may read the Ki as a measure of affinity in units of concentration, obtained from inhibition or displacement. What is called IC50 is the concentration that inhibits the measured activity by half.

T1 sequence (O70528 whole entry): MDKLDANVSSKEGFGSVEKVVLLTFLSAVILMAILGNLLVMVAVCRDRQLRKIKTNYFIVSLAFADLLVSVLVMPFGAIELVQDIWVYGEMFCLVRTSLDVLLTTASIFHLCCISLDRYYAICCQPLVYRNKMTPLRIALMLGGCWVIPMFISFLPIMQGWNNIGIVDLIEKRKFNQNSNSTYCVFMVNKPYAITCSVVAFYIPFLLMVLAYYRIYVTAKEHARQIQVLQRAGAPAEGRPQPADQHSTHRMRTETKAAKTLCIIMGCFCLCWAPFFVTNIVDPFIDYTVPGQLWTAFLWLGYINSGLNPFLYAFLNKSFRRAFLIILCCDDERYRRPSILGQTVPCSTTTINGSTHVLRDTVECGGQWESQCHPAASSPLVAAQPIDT
Protocol for 5-HT3 receptor: 148, pp. 297-299 (1988)], a specific 5-HT3 receptor binding test was run using, as a tracer ligand, endo-1-methyl-N-(9-methyl-9-azabicyclo[3.3.1]non-3-yl)-1H-indazole-3-carboxamide substituted by tritium (hereinafter to be referred to as [3H]Granisetron). Specifically, crude synapse membrane sample was prepared from rat cerebral cortex, suspended in 50 mM HEPES buffer (pH 7.4) and used for testing. The test compound having several different concentrations and [3H]Granisetron (final concentration 1.0 nM) were added to this suspension and allowed to react at 25°C. Thirty minutes later, the reaction mixture was filtered by suction with cell harvester. The filter was washed with 50 mM Tris buffer (pH 7.4), and the radioactivity on the filter was counted using liquid scintillation counter or β-plate. The non-specific binding was determined in the presence of 1 µM Tropisetron. The concentration of the test compound necessary for 50% inhibition (IC50) was determined from a graph and converted to a Ki value.
Protocol for 5-HT4 receptor: Specifically, crude synapse membrane sample was prepared from guinea pig striatum, suspended in 50 mM HEPES buffer (pH 7.4) and used for testing. The test compound having several different concentrations and [3H]GR113808 (final concentration 0.1 nM) were added to this suspension and allowed to react at 37°C. Thirty minutes later, the reaction mixture was filtered by suction with cell harvester. The filter was washed with 50 mM HEPES buffer, and the radioactivity on the filter was counted by liquid scintillation counter. The non-specific binding was determined in the presence of 1 µM GR113808. The concentration of the test compound necessary for 50% inhibition (IC50) was determined from a graph and converted to a Ki value.

Regarding `COc1cc(N)c(Cl)cc1C(=O)NCC1CCN(CCCCCC(=O)c2ccc(O)cc2)CC1` [Example 75, 4-amino-5-chloro-N-((1-(6-(4-hydroxyphenyl)-6-oxohexyl)piperidin-4-yl)methyl)-2-methoxybenzamide], the Ki at 5-HT4 receptor (setting [1]) turned out to be 1.5 nM. The IC50 at 5-HT3 receptor (setting [2]) is greater than 1000 nM.
The like results for `CCN(CCCCCCN1CCC(CNC(=O)c2cc(Cl)c(N)cc2OC)CC1)Cc1ccccc1` [Example 44, 4-amino-5-chloro-N-((1-(6-(N-ethyl-N-benzylamino)hexyl)piperidin-4-yl)methyl)-2-methoxy benzamide] were, in that order, 0.67 nM and greater than 1000 nM.
The like results for `COc1cc(N)c(Cl)cc1C(=O)NCC1CCN(CCCCCS(=O)(=O)c2ccccc2)CC1` [Example 84, 4-amino-5-chloro-2-methoxy-N-((1-(5-phenylsulfonylpentyl)piperidin-4-yl)methyl)benzamide hydrochloride] were, in that order, 1.4 nM and greater than 1000 nM.
The like results for `COc1cc(N)c(Cl)cc1C(=O)NCC1CCN(CCCCCNCC2CCCCC2)CC1` [Example 11, 4-amino-5-chloro-N-((1-(5-(cyclohexylmethylamino)pentyl)piperidin-4-yl)methyl)-2-methoxybenzamide] were, in that order, 0.51 nM and greater than 1000 nM.
Consider `COc1ccc(C(=O)CCCCCN2CCC(CNC(=O)c3cc(Cl)c(N)cc3OC)CC2)cc1Cl` [Example 73, 4-amino-5-chloro-N-((1-(6-(3-chloro-4-methoxyphenyl)-6-oxohexyl)piperidin-4-yl)methyl)-2-methoxybenzamide], for which the Ki at 5-HT4 receptor (setting [1]) came out at 1.8 nM. Also, the IC50 on 5-HT3 receptor (setting [2]) is greater than 1000 nM.
For the compound `COc1cc(N)c(Cl)cc1C(=O)NCC1CCN(CCCCCOCc2ccccc2)CC1` [Example 53, 4-amino-N-((1-(5-benzyloxypentyl)piperidin-4-yl)methyl)-5-chloro-2-methoxybenzamide], the Ki on 5-HT4 receptor (setting [1]) is 3.5 nM; at 5-HT3 receptor (setting [3]), 370 nM.
`COc1cc(N)c(Cl)cc1C(=O)NCC1CCN(CCCCCCC(=O)c2ccccc2)CC1` [Example 58, 4-amino-5-chloro-2-methoxy-N-((1-(7-oxo-7-phenylheptyl)piperidin-4-yl)methyl)benzamide]: the Ki at 5-HT4 receptor (setting [1]) was 1.5 nM. Also, the IC50 on 5-HT3 receptor (setting [2]) is greater than 1000 nM.
The like results for `CCN(CCCCCCN1CCC(CNC(=O)c2cc(Cl)c(N)cc2OC)CC1)Cc1ccc([N+](=O)[O-])cc1` [Example 47, 4-amino-5-chloro-N-((1-(6-(N-ethyl-N-(4-nitrobenzyl)amino)hexyl)piperidin-4-yl)methyl)-2-methoxybenzamide] were, in that order, 2.7 nM and greater than 1000 nM.
The like results for `CCN(CCCCCN1CCC(CNC(=O)c2cc(Cl)c(N)cc2OC)CC1)Cc1ccc(F)cc1` [Example 25, 4-amino-5-chloro-N-((1-(5-(N-ethyl-N-(4-fluorobenzyl)amino)pentyl)piperidin-4-yl)methyl)-2-methoxybenzamide] were, in that order, 0.94 nM and greater than 1000 nM.
For `COc1cc(N)c(Cl)cc1C(=O)NCC1CCN(CCCCCSCc2ccccc2)CC1` [Example 54, 4-amino-N-((1-(5-benzylthiopentyl)piperidin-4-yl)methyl)-5-chloro-2-methoxybenzamide], the Ki at 5-HT4 receptor (setting [1]) was 1.6 nM; at 5-HT3 receptor (setting [3]), 340 nM.
In the case of `CCCN(CCCCCN1CCC(CNC(=O)c2cc(Cl)c(N)cc2OC)CC1)Cc1ccccc1` [Example 33, 4-amino-5-chloro-2-methoxy-N-((1-(5-(N-n-propyl-N-benzylamino)pentyl)piperidin-4-yl)methyl)benzamide], the Ki at 5-HT4 receptor (setting [1]) was 0.84 nM. Also, the IC50 at 5-HT3 receptor (setting [2]) was greater than 1000 nM.
For the compound `COc1ccc(C(=O)CCCCCN2CCC(CNC(=O)c3cc(Cl)c(N)cc3OC)CC2)cc1F` [Example 74, 4-amino-5-chloro-N-((1-(6-(3-fluoro-4-methoxyphenyl)-6-oxohexyl)piperidin-4-yl)methyl)-2-methoxybenzamide], the Ki on 5-HT4 receptor (setting [1]) worked out at 5.1 nM. Moreover, the IC50 at 5-HT3 receptor (setting [2]) was greater than 1000 nM.
The like results for `COc1cc(N)c(Cl)cc1C(=O)NCC1CCN(CCCCCNCc2ccc3ccccc3c2)CC1` [Example 14, 4-amino-5-chloro-2-methoxy-N-((1-(5-(2-naphthylmethylamino)pentyl)piperidin-4-yl)methyl)benzamide] were, in that order, 0.97 nM and greater than 1000 nM.
The like results for `COc1cc(N)c(Cl)cc1C(=O)NCC1CCN(CCCCCC(=O)c2cccc3ccccc23)CC1` [Example 81, 4-amino-5-chloro-N-((1-(6-(1-naphthyl)-6-oxohexyl)piperidin-4-yl)methyl)-2-methoxybenzamide hydrochloride] were, in that order, 0.5 nM and greater than 1000 nM.
`COc1cc(N)c(Cl)cc1C(=O)NCC1CCN(CCCCCC(=O)c2cn(C)c3ccccc23)CC1` [Example 77, 4-amino-5-chloro-2-methoxy-N-((1-(6-(1-methyl-1H-indol-3-yl)-6-oxohexyl)piperidin-4-yl)methyl)benzamide]: at 5-HT4 receptor (setting [1]), the Ki is 0.34 nM. At 5-HT3 receptor (setting [2]), the IC50 is greater than 1000 nM.
The like results for `CCN(CCCCN1CCC(CNC(=O)c2cc(Cl)c(N)cc2OC)CC1)Cc1ccc(Cl)c(Cl)c1` [Example 42, 4-amino-5-chloro-N-((1-(4-(N-(3,4-dichlorobenzyl)-N-ethylamino)butyl)piperidin-4-yl)methyl)-2-methoxybenzamide] were, in that order, 0.62 nM and greater than 1000 nM.
`CCn1cc(C(=O)CCCCCN2CCC(CNC(=O)c3cc(Cl)c(N)cc3OC)CC2)c2ccccc21` [Example 93, 4-amino-5-chloro-2-methoxy-N-((1-(6-(1-ethyl-1H-indol-3-yl)-6-oxohexyl)piperidin-4-yl)methyl)benzamide] yielded a Ki on 5-HT4 receptor of 0.47 nM. The compound also displayed an IC50 at 5-HT3 receptor greater than 1000 nM.
